The values below come from patent US20120220562A1, “Anti-Viral Compounds” (ABBOTT LABAORATORIES, priority 2011, published 2012).

The structures appear in SMILES notation. Where only a bound is given, the exact number is not on record here.

The first experiment deals with HCV 1b-Con1 replicon. Briefly: HCV 1b-Con1 replicon assay in the presence of 5% FBS. It counts as cell-based. The settings on record: Hepatitis C virus.
Take `COC(=O)N[C@H](C(=O)N1CCC[C@H]1c1nc2cc([C@H]3CC[C@H](c4ccc5[nH]c([C@@H]6CCCN6C(=O)[C@@H](NC(=O)OC)C(C)C)nc5c4)N3c3ccc(N4CCC(c5ccccc5)CC4)c(F)c3)ccc2[nH]1)C(C)C` [Example 3.20, methyl {(2S)-1-[(2S)-2-{5-[(2R,5R)-1-[3-fluoro-4-(4-phenylpiperidin-1-yl)phenyl]-5-{2-[(2S)-1-{(2S)-2-[(methoxycarbonyl)amino]-3-methylbutanoyl}pyrrolidin-2-yl]-1H-benzimidazol-5-yl}pyrrolidin-2-yl]-1H-benzimidazol-2-yl}pyrrolidin-1-yl]-3-methyl-1-oxobutan-2-yl}carbamate]: the EC50 is less than 0.1 nM.

`COC(=O)N[C@H](C(=O)N1CCC[C@H]1c1nc2cc([C@H]3CC[C@H](c4ccc5[nH]c([C@@H]6CCCN6C(=O)[C@@H](NC(=O)OC)C(C)C)nc5c4)N3c3ccc(OC(F)(F)F)c(Cl)c3)ccc2[nH]1)C(C)C` [Example 3.2, methyl {(2S)-1-[(2S)-2-{5-[(2R,5R)-1-[3-chloro-4-(trifluoromethoxy)phenyl]-5-{2-[(2S)-1-{(2S)-2-[(methoxycarbonyl)amino]-3-methylbutanoyl}pyrrolidin-2-yl]-1H-benzimidazol-5-yl}pyrrolidin-2-yl]-1H-benzimidazol-2-yl}pyrrolidin-1-yl]-3-methyl-1-oxobutan-2-yl}carbamate]: the half-maximal effective concentration (EC50) is less than 0.1 nM. Same read-out and setting: to `CC(C)(C)OC(=O)NCC(=O)N1CCC[C@H]1c1nc2cc([C@@H]3CC[C@@H](c4ccc5[nH]c([C@@H]6CCCN6C(=O)CNC(=O)OC(C)(C)C)nc5c4)N3c3ccc(N4CCCCC4)c(F)c3)ccc2[nH]1` [Example 3.14, tert-butyl {2-[(2S)-2-(5-{(2S,5S)-5-{2-[(2S)-1-{[(tert-butoxycarbonyl)amino]acetyl}pyrrolidin-2-yl]-1H-benzimidazol-5-yl}-[3-fluoro-4-(piperidin-1-yl)phenyl]pyrrolidin-2-yl}-1H-benzimidazol-2-yl)pyrrolidin-1-yl]-2-oxoethyl}carbamate] belongs more than 10 nM; to `COC(=O)N[C@H](C(=O)N1CCC[C@H]1c1nc2cc([C@H]3CC[C@H](c4cc5nc([C@@H]6CCCN6C(=O)[C@@H](NC(=O)OC)C(C)C)[nH]c5cc4F)N3c3cc(F)c(N4CCC(CCCc5ccccc5)CC4)c(F)c3)c(F)cc2[nH]1)C(C)C` [Example 4.26, methyl {(2S)-1-[(2S)-2-{5-[(2R,5R)-1-{3,5-difluoro-4-[4-(3-phenylpropyl)piperidin-1-yl]phenyl}-5-{6-fluoro-2-[(2S)-1-{(2S)-2-[(methoxycarbonyl)amino]-3-methylbutanoyl}pyrrolidin-2-yl]-1H-benzimidazol-5-yl}pyrrolidin-2-yl]-6-fluoro-1H-benzimidazol-2-yl}pyrrolidin-1-yl]-3-methyl-1-oxobutan-2-yl}carbamate], less than 0.1 nM; to `COC(=O)N[C@H](C(=O)N1CCC[C@H]1c1nc2ccc([C@H]3CC[C@H](c4ccc5nc([C@@H]6CCCN6C(=O)[C@@H](NC(=O)OC)C(C)C)[nH]c5c4)N3c3ccc(S(C)(=O)=O)c(F)c3)cc2[nH]1)C(C)C` [Example 2.7, methyl {(2S)-1-[(2S)-2-{6-[(2R,5R)-1-[3-fluoro-4-(methylsulfonyl)phenyl]-5-{2-[(2S)-1-{(2S)-2-[(methoxycarbonyl)amino]-3-methylbutanoyl}pyrrolidin-2-yl]-1H-benzimidazol-6-yl}pyrrolidin-2-yl]-1H-benzimidazol-2-yl}pyrrolidin-1-yl]-3-methyl-1-oxobutan-2-yl}carbamate], 1 to 10 nM.

As to `COC(=O)N[C@H](C(=O)N1CCC[C@H]1c1nc2ccc([C@H]3CC[C@H](c4ccc5nc([C@@H]6CCCN6C(=O)[C@@H](NC(=O)OC)C(C)C)[nH]c5c4)N3c3ccc(S(F)(F)(F)(F)F)cc3)cc2[nH]1)C(C)C` [Example 4.13, methyl {(2S)-1-[(2S)-2-(6-{(2R,5R)-5-{2-[(2S)-1-{(2S)-2-[(methoxycarbonyl)amino]-3-methylbutanoyl}pyrrolidin-2-yl]-1H-benzimidazol-6-yl}-1-[4-(pentafluoro-lambda˜6˜-sulfanyl)phenyl]pyrrolidin-2-yl}-1H-benzimidazol-2-yl)pyrrolidin-1-yl]-3-methyl-1-oxobutan-2-yl}carbamate], the EC50 is less than 0.1 nM. Take `COC(=O)N[C@H](C(=O)N1CCC[C@H]1c1nc2cc([C@H]3CC[C@H](c4ccc5[nH]c([C@@H]6CCCN6C(=O)[C@@H](NC(=O)OC)C(C)C)nc5c4)N3c3cc(F)c(N4CCC(C(F)(F)F)CC4)c(F)c3)ccc2[nH]1)C(C)C` [Example 5.8, methyl {(2S)-1-[(2S)-2-{5-[(2R,5R)-1-{3,5-difluoro-4-[4-(trifluoromethyl)piperidin-1-yl]phenyl}-5-{2-[(2S)-1-{(2S)-2-[(methoxycarbonyl)amino]-3-methylbutanoyl}pyrrolidin-2-yl]-1H-benzimidazol-5-yl}pyrrolidin-2-yl]-1H-benzimidazol-2-yl}pyrrolidin-1-yl]-3-methyl-1-oxobutan-2-yl}carbamate]: the EC50 was less than 0.1 nM.

For `COC(=O)N[C@H](C(=O)N1CCC[C@H]1c1nc2cc([C@H]3CC[C@H](c4ccc5[nH]c([C@@H]6CCCN6C(=O)[C@@H](NC(=O)OC)C(C)C)nc5c4)N3c3ccc(OC4COCOC4)cc3)ccc2[nH]1)C(C)C` [Example 2.3, methyl {(2S)-1-[(2S)-2-{5-[(2R,5R)-1-[4-(1,3-dioxan-5-yloxy)phenyl]-5-{2-[(2S)-1-{(2S)-2-[(methoxycarbonyl)amino]-3-methylbutanoyl}pyrrolidin-2-yl]-1H-benzimidazol-5-yl}pyrrolidin-2-yl]-1H-benzimidazol-2-yl}pyrrolidin-1-yl]-3-methyl-1-oxobutan-2-yl}carbamate], the EC50 lay within 1 to 10 nM. Consider `COC(=O)N[C@H](C(=O)N1C[C@@H](F)C[C@H]1c1nc2cc([C@H]3CC[C@H](c4ccc5[nH]c([C@@H]6C[C@H](F)CN6C(=O)[C@@H](NC(=O)OC)C(C)C)nc5c4)N3c3ccc(C(C)(C)C)cc3)ccc2[nH]1)C(C)C` [Example 3.12, methyl {(2S)-1-[(2S,4S)-2-{5-[(2R,5R)-1-(4-tert-butylphenyl)-5-{2-[(2S,45)-4-fluoro-1-{(2S)-2-[(methoxycarbonyl)amino]-3-methylbutanoyl}pyrrolidin-2-yl]-1H-benzimidazol-5-yl}pyrrolidin-2-yl]-1H-benzimidazol-2-yl}-4-fluoropyrrolidin-1-yl]-3-methyl-1-oxobutan-2-yl}carbamate], for which the EC50 is less than 0.1 nM. In the case of `COC(=O)N[C@H](C(=O)N1[C@H](c2nc3cc([C@H]4CC[C@H](c5ccc6[nH]c([C@@H]7C[C@@H]8CCC[C@@H]8N7C(=O)[C@@H](NC(=O)OC)C7CCOCC7)nc6c5)N4c4cc(F)c(N5CCCCC5)c(F)c4)ccc3[nH]2)C[C@@H]2CCC[C@@H]21)C1CCOCC1` [Example 3.32, dimethyl ({(2R,5R)-1-[3,5-difluoro-4-(piperidin-1-yl)phenyl]pyrrolidine-2,5-diyl}bis{1H-benzimidazole-5,2-diyl(2S,3aS,6aS)hexahydrocyclopenta[b]pyrrole-2,1(2H)-diyl[(1S)-2-oxo-1-(tetrahydro-2H-pyran-4-yl)ethane-2,1-diyl]})biscarbamate], the EC50 is less than 0.1 nM. Still for that read-out and setting: then `COC(=O)N[C@H](C(=O)N1CCC[C@H]1c1nc2cc([C@H]3CC[C@H](c4cc5nc([C@@H]6CCCN6C(=O)[C@@H](NC(=O)OC)C(C)C)[nH]c5cc4F)N3c3cc(F)c(N4CCC(C(F)(c5ccccc5)c5ccccc5)CC4)c(F)c3)c(F)cc2[nH]1)C(C)C` [Example 4.37, methyl {(2S)-1-[(2S)-2-{5-[(2R,5R)-1-(3,5-difluoro-4-{4-[fluoro(diphenyl)methyl]piperidin-1-yl}phenyl)-5-{6-fluoro-2-[(2S)-1-{(2S)-2-[(methoxycarbonyl)amino]-3-methylbutanoyl}pyrrolidin-2-yl]-1H-benzimidazol-5-yl}pyrrolidin-2-yl]-6-fluoro-1H-benzimidazol-2-yl}pyrrolidin-1-yl]-3-methyl-1-oxobutan-2-yl}carbamate], with less than 0.1 nM; and `COC(=O)N[C@H](C(=O)N1CCC[C@H]1c1nc2cc([C@H]3CC[C@H](c4cc5nc([C@@H]6CCCN6C(=O)[C@@H](NC(=O)OC)[C@@H](C)OC)[nH]c5cc4F)N3c3cc(F)c(N4CCN(c5c(F)cccc5F)CC4)c(F)c3)c(F)cc2[nH]1)[C@@H](C)OC` [Example 3.48, methyl {(2S,3R)-1-[(2S)-2-{5-[(2R,5R)-1-{4-[4-(2,6-difluorophenyl)piperazin-1-yl]-3,5-difluorophenyl}-5-(6-fluoro-2-{(2S)-1-[N-(methoxycarbonyl)-O-methyl-L-threonyl]pyrrolidin-2-yl}-1H-benzimidazol-5-yl)pyrrolidin-2-yl]-6-fluoro-1H-benzimidazol-2-yl}pyrrolidin-1-yl]-3-methoxy-1-oxobutan-2-yl}carbamate], with less than 0.1 nM.

The next experiment has as its system HCV 2a, 2b, 3a and 4a replicons. Briefly: HCV 2a, 2b, 3a and 4a replicon assays in the absence of human plasma. It counts as cell-based.
Conditions: not given
The protocol:
The inhibitory effects of the compounds of the invention on HCV replication can be determined by measuring activity of the luciferase reporter gene. For example, replicon-containing cells can be seeded into 96 well plates at a density of 5000 cells per well in 100 μl DMEM containing 5% FBS. The following day compounds can be diluted in dimethyl sulfoxide (DMSO) to generate a 200× stock in a series of eight half-log dilutions. The dilution series can then be further diluted 100-fold in the medium containing 5% FBS. Medium with the inhibitor is added to the overnight cell culture plates already containing 100 μl of DMEM with 5% FBS. In assays measuring inhibitory activity in the presence of human plasma, the medium from the overnight cell culture plates can be replaced with DMEM containing 40% human plasma and 5% FBS. […] Luciferin solution (100 μl, Promega) can be added to each well, and luciferase activity can be measured with a Victor II luminometer (Perkin-Elmer). The percent inhibition of HCV RNA replication can be calculated for each compound concentration and the EC50 value can be calculated using nonlinear regression curve fitting to the 4-parameter logistic equation and GraphPal Prism 4 software.
With `COC(=O)N[C@H](C(=O)N1CCC[C@H]1c1nc2cc([C@H]3CC[C@H](c4ccc5[nH]c([C@@H]6CCCN6C(=O)[C@@H](NC(=O)OC)C(C)C)nc5c4)N3c3ccc(N4CCC(c5ccccc5)CC4)c(F)c3)ccc2[nH]1)C(C)C` [Example 3.20, methyl {(2S)-1-[(2S)-2-{5-[(2R,5R)-1-[3-fluoro-4-(4-phenylpiperidin-1-yl)phenyl]-5-{2-[(2S)-1-{(2S)-2-[(methoxycarbonyl)amino]-3-methylbutanoyl}pyrrolidin-2-yl]-1H-benzimidazol-5-yl}pyrrolidin-2-yl]-1H-benzimidazol-2-yl}pyrrolidin-1-yl]-3-methyl-1-oxobutan-2-yl}carbamate], the “EC50 values, fold less than those of Example 4.25” value is reported as “at least 15 fold”.
